This is an account of results in ChEMBL document CHEMBL1687714, “Genetic analysis of fenhexamid-resistant field isolates of the phytopathogenic fungus Botrytis cinerea” (Antimicrob Agents Chemother, 2008).

SMILES strings stand for the structures. Converted amounts (≈) assume the structure as drawn.

Holding throughout (format): functional, organism-based
Test [1] concerns Botrytis cinerea. Put plainly: Antifungal activity against highly fenhexamid-resistant Botrytis cinerea 223a assessed as inhibition of mycelium growth measured over 5 days. The following applies: 120 h.
Test [2] concerns Botrytis cinerea. The experiment in a line: Antifungal activity against moderately to slightly fenhexamid-resistant Botrytis cinerea 05-ABA assessed as inhibition of mycelium growth measured over 5 days. The following applies: 120 h.
The subject of test [3] is Botrytis cinerea. Put plainly: Antifungal activity against highly fenhexamid-resistant Botrytis cinerea 506a assessed as inhibition of germ tube elongation after 24 hrs.
Test [4] concerns Botrytis cinerea. Put plainly: Antifungal activity against highly fenhexamid-resistant Botrytis cinerea 1837 assessed as inhibition of mycelium growth measured over 5 days. The following applies: Botrytis cinerea, 1837, 120 h.
For test [5], the system named is Botrytis cinerea. The experiment in a line: Antifungal activity against highly fenhexamid-resistant Botrytis cinerea 214 assessed as inhibition of germ tube elongation after 24 hrs. The following applies: Botrytis cinerea, 214, 24 h.
The test system of test [6] is Botrytis cinerea. The experiment in a line: Antifungal activity against fenhexamid-senistive Botrytis cinerea SAS56 assessed as inhibition of mycelium growth measured over 5 days. The following applies: SAS56, 120 h.
The subject of test [7] is Botrytis cinerea. The experiment in a line: Antifungal activity against moderately to slightly fenhexamid-resistant Botrytis cinerea 221 assessed as inhibition of mycelium growth measured over 5 days. The following applies: Botrytis cinerea, 221, 120 h.
Test [8] concerns Botrytis cinerea. The experiment in a line: Antifungal activity against fenhexamid-senistive Botrytis cinerea B05.10 assessed as inhibition of mycelium growth measured over 5 days. The following applies: B05.10, 120 h.

For `CC1(C(=O)Nc2ccc(O)c(Cl)c2Cl)CCCCC1` [FENHEXAMID], the EC50 with Botrytis cinerea [1] is above 10 µg/mL; in the test with Botrytis cinerea [2] it was 0.2 µg/mL (≈ 0.662 µM); in the test with Botrytis cinerea [3] it was above 10 µg/mL; in the test with Botrytis cinerea [4], above 10 µg/mL; in the test with Botrytis cinerea [5] it was 10 µg/mL (≈ 33.1 µM); in the test on Botrytis cinerea [6], below 0.1 µg/mL. Moreover, the EC50 with Botrytis cinerea [7] is 0.2 µg/mL (≈ 0.662 µM); with Botrytis cinerea [8] it was below 0.03 µg/mL.

The term EC50 denotes the midpoint of the concentration-response curve.
